Assay: physchem
Conditions: not given

Molecule	logP
CCC1CCC(=O)O1 (racemic) [GAMMA HEXALACTONE, (+ −)-4-HEXANOLIDE]	0.6
CCOc1cc(C=O)ccc1O [ETHYL VANILLIN, 3-ethoxy-4-hydroxybenzaldehyde]	1.58

Assay: logP of fragrance raw materials and fragrances
Conditions: not given

Molecule	logP
COC(=O)c1c(C)cc(O)c(C)c1O [MOUSSE CRISTAL, METHYL 2,4-DIHYDROXY-3,6-DIMETHYLBENZOATE]	3.22
CC(C)(O)CCC1CCCCC1 [CORANOL, 4-CYCLOHEXYL-2-METHYL-2-BUTANOL]	3.98
CCCC(C)C(=O)OCC (racemic) [(+ −)-ETHYL 2-METHYLPENTANOATE]	2.76
CC(=O)/C(C)=C/C1C(C)=CCCC1(C)C (racemic) [ISORALDEINE 70 P, (+ −)-(3E)-3-methyl-4-(2,6,6-trimethyl-2-cyclohexen-1-yl)-3-buten-2-one]	4.84
CC(C)=CC1CC(C)CCO1 (centres unmarked) [ROSE OXIDE, TETRAHYDRO-4-METHYL-2-(2-METHYL-1-PROPENYL)-2H-PYRAN]	3.58
COC(=O)/C=C/c1ccccc1 [METHYL CINNAMATE, METHYL (E)-3-PHENYL-2-PROPENOATE]	2.62
CC1/C=C/CCCCCCCCCCC(=O)C1 (racemic) [MUSCENONE DELTA, (+ −)-(4E)-3-METHYL-4-CYCLOPENTADECEN-1-ONE]	5.75
CCOC(=O)CC1(C)OCCO1 [FRUCTONE ®, ETHYL 2-METHYL-1,3-DIOXOLANE-2-ACETATE]	1.3
CCCCCC1(C)CCC(C)(C)C1=O (racemic) [VELOUTONE, (+ −)-2,2,5-trimethyl-5-pentylcyclopentanone]	4.34
CC(C)=CCCC(C)=CCO [GERANIOL LJ]	3.47
Cc1ccc2c(c1)OCC(=O)CO2 [CALONE ®, 7-methyl-2H-1,5-benzodioxepin-3(4H)-one]	2.43
C=CC(C)CCCC(C)(C)O (racemic) [DIHYDROMYRCENOL PURE, (+ −)-2,6-DIMETHYL-7-OCTEN-2-OL]	3.47
CCC(=O)OC1CC2CC1C1CC=CC21 (centres unmarked) [VERDYL PROPIONATE, TRICYCLO[5.2.1.0(2,6)]DEC-3-EN-8-YL PROPANOATE]	3.34
CCCCCCC1CCC(=O)O1 (racemic) [DECALACTONE CP, (+ −)-4-DECANOLIDE]	2.72
O=C1CCCCCCCCCCCCCCO1 [EXALTOLIDE ®, oxacyclohexadecan-2-one]	6.15

Same assay, conditions: single raw materials of fragrances F1-F4 (Tables 1-4)

Molecule	logP
2/3-METHYLBUTYL ACETATE [AMYL ACETATE]	2.26
CCC(=O)OCC(C)(C)O[C@@H](C)[C@@H]1CCCC(C)(C)C1 [HELVETOLIDE ®, (+)-(1S,1′R)-2[1-(3′,3′-DIMETHYL-1′-CYCLOHEXYL)ETHOXY]-2-METHYLPROPYL PROPANOATE]	5.51
CC1=CC(C)C(C=O)C(C)C1 (centres unmarked) [ISOCYCLOCITRAL]	3.27
1-OXA-12/13-CYCLOHEXADECEN-2-ONE [HABANOLIDE ®]	4.88
ALLYL (2/3-METHYLBUTOXY)ACETATE [ALLYL AMYL GLYCOLATE]	2.34
OCCCc1ccccc1 [PHENYLPROPYL ALCOHOL, 3-PHENYL-1-PROPANOL]	1.88

Reference: patent US11504310B2, “Aqueous microemulsion” (Firmenich SA, priority 2017, dated 2022)
